In patent US20180319810A1, “SUBSTITUTED BRIDGED UREA ANALOGS AS SIRTUIN MODULATORS” (GlaxoSmithKline Intellectual Property (No.2) Limited, priority 2014, published 2018):

Target: T1, SIRT1 (Homo sapiens, UniProt Q96EB6)
T1 sequence (Q96EB6 1-747): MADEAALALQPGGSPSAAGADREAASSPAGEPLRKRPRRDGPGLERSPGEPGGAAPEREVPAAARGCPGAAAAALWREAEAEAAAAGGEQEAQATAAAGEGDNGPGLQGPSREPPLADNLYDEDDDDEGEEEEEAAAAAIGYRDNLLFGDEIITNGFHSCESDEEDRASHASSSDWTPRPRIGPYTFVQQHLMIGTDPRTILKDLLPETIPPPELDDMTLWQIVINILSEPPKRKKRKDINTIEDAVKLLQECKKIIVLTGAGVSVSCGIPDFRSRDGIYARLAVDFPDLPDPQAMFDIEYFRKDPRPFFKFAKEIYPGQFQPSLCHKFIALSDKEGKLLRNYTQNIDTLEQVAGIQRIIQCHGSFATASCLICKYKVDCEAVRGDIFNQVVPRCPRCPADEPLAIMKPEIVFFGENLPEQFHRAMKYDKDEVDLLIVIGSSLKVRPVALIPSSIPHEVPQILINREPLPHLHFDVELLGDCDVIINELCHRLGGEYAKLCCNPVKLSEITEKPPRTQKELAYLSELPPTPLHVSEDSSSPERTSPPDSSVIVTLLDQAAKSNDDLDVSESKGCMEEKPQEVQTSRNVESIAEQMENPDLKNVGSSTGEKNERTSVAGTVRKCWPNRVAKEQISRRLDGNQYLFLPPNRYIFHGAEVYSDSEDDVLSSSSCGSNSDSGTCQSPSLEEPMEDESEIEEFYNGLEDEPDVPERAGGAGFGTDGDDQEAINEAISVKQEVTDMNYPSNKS
Test: Trp mass spectrometry assay of SIRT1 activation
Type: biochemical
Conditions: Trp peptide Ac-R-H-K-K(Ac)-W-NH2 0.5 μM, 120 μM βNAD+, 10 nM SIRT1, 25 min, 25° C.

Compound	TRP Activity (EC1.5, concentration of compound required to increase SIRT1 activity by 50% over control)	TRP MAX RESP (percent maximum fold activation relative to control)
O=C(Nc1ccnc(O[C@@H]2CCOC2)n1)N1c2nc(-c3cccc(C(F)(F)F)c3)ncc2N2CC[C@H]1C2 [Example 14, (8S)—N-(2-(((R)-tetrahydrofuran-3-yl)oxy)pyrimidin-4-yl)-2-(3-(trifluoromethyl)phenyl)-7,8-dihydro-5,8-methanopyrimido[4,5-b][1,4]diazepine-9(6H)-carboxamide]	B (EC1.5 1-25 μM)	A (Fold activation ≥150%)
Cc1ncc(-c2ccnc(NC(=O)N3c4nc(C(=O)N[C@H](C)C(F)(F)F)ncc4N4CC[C@H]3C4)c2)o1 [Example 115, (8S)—N9-(4-(2-methyloxazol-5-yl)pyridin-2-yl)-N2-((R)-1,1,1-trifluoropropan-2-yl)-7,8-dihydro-5,8-methanopyrimido[4,5-b][1,4]diazepine-2,9(6H)-dicarboxamide]	B (EC1.5 1-25 μM)	A (Fold activation ≥150%)
Cc1cc(-c2ncc3c(n2)N(C(=O)Nc2ccccn2)[C@H]2CCN3C2)ccn1 [Example 8, (8S)-2-(2-methylpyridin-4-yl)-N-(pyridin-2-yl)-7,8-dihydro-5,8-methanopyrimido[4,5-b][1,4]diazepine-9(6H)-carboxamide]	B (EC1.5 1-25 μM)	
Cc1ccc2c(NC(=O)N3c4nc(C(=O)N[C@H](C)C(F)(F)F)nc(C)c4N4CCC[C@H]3C4)n[nH]c2n1 [Example 73, (9S)-4-methyl-N10-(6-methyl-1H-pyrazolo[3,4-b]pyridin-3-yl)-N2-((R)-1,1,1-trifluoropropan-2-yl)-8,9-dihydro-6H-5,9-methanopyrimido[4,5-b][1,4]diazocine-2,10(7H)-dicarboxamide]	A (EC1.5<1 μM)	A (Fold activation ≥150%)
C[C@@H](NC(=O)c1ncc2c(n1)N(C(=O)Nc1cccc(OC[C@H](O)CO)n1)[C@H]1CCCN2C1)C(F)(F)F [Example 78, (9S)—N10-(6-((R)-2,3-dihydroxypropoxy)pyridin-2-yl)-N2-((R)-1,1,1-trifluoropropan-2-yl)-8,9-dihydro-6H-5,9-methanopyrimido[4,5-b][1,4]diazocine-2,10(7H)-dicarboxamide]	B (EC1.5 1-25 μM)	A (Fold activation ≥150%)
O=C(NC1CC1)N1c2nc(-c3cccc(C(F)(F)F)c3)ncc2N2CC[C@H]1C2 [Example 15, (8S)—N-cyclopropyl-2-(3-(trifluoromethyl)phenyl)-7,8-dihydro-5,8-methanopyrimido[4,5-b][1,4]diazepine-9(6H)-carboxamide]	A (EC1.5<1 μM)	A (Fold activation ≥150%)
Cc1ccc2c(NC(=O)N3c4nc(C(=O)N[C@H](C)C(F)(F)F)ncc4N4CCC[C@H]3C4)n[nH]c2n1 [Example 72, (9S)—N10-(6-methyl-1H-pyrazolo[3,4-b]pyridin-3-yl)-N2-((R)-1,1,1-trifluoropropan-2-yl)-8,9-dihydro-6H-5,9-methanopyrimido[4,5-b][1,4]diazocine-2,10(7H)-dicarboxamide]	A (EC1.5<1 μM)	A (Fold activation ≥150%)

Continued, values first:

TRP Activity (EC1.5, concentration of compound required to increase SIRT1 activity by 50% over control)	TRP MAX RESP (percent maximum fold activation relative to control)	Compound
B (EC1.5 1-25 μM)	A (Fold activation ≥150%)	Cc1nc(-c2cccc(C(F)(F)F)c2)nc2c1N1CC[C@@H](C1)N2C(=O)Nc1cncc(OC[C@@H](O)CO)c1 [Example 46, (8S)—N-(5-((S)-2,3-dihydroxypropoxy)pyridin-3-yl)-4-methyl-2-(3-(trifluoromethyl)phenyl)-7,8-dihydro-5,8-methanopyrimido[4,5-b][1,4]diazepine-9(6H)-carboxamide]
A (EC1.5<1 μM)	A (Fold activation ≥150%)	Cc1nc(-c2cccc(C(F)(F)F)c2)nc2c1N1CCC[C@@H](C1)N2C(=O)Nc1nccc(OC[C@@H](O)CO)n1 [Example 112, (9S)—N-(4-((S)-2,3-dihydroxypropoxy)pyrimidin-2-yl)-4-methyl-2-(3-(trifluoromethyl)phenyl)-8,9-dihydro-6H-5,9-methanopyrimido[4,5-b][1,4]diazocine-10(7H)-carboxamide]
B (EC1.5 1-25 μM)	A (Fold activation ≥150%)	O=C(Nc1cncc(OC[C@@H](O)CO)n1)N1c2nc(-c3cccc(C(F)(F)F)c3)ncc2N2CC[C@H]1C2 [Example 50, (8S)—N-(6-((S)-2,3-dihydroxypropoxy)pyrazin-2-yl)-2-(3-(trifluoromethyl)phenyl)-7,8-dihydro-5,8-methanopyrimido[4,5-b][1,4]diazepine-9(6H)-carboxamide]
A (EC1.5<1 μM)	A (Fold activation ≥150%)	O=C(Nc1cccc(OC[C@@H](O)CO)n1)N1c2nc(-c3cccc(C(F)(F)F)c3)ncc2N2CC[C@H]1C2 [Example 31, (8S)—N-(6-((S)-2,3-dihydroxypropoxy)pyridin-2-yl)-2-(3-(trifluoromethyl)phenyl)-7,8-dihydro-5,8-methanopyrimido[4,5-b][1,4]diazepine-9(6H)-carboxamide]
B (EC1.5 1-25 μM)	A (Fold activation ≥150%)	O=C(Nc1nccc(OC[C@@H](O)CO)n1)N1c2nc(-c3cccc(C(F)(F)F)c3)ncc2N2CCC[C@H]1C2 [Example 103, (9S)—N-(4-((S)-2,3-dihydroxypropoxy)pyrimidin-2-yl)-2-(3-(trifluoromethyl)phenyl)-8,9-dihydro-6H-5,9-methanopyrimido[4,5-b][1,4]diazocine-10(7H)-carboxamide]
A (EC1.5<1 μM)	A (Fold activation ≥150%)	O=C(Nc1cccc(OC[C@H](O)CO)n1)N1c2nc(-c3cccc(C(F)(F)F)c3)ncc2N2CCC[C@H]1C2 [Example 89, (9S)—N-(6-((R)-2,3-dihydroxypropoxy)pyridin-2-yl)-2-(3-(trifluoromethyl)phenyl)-8,9-dihydro-6H-5,9-methanopyrimido[4,5-b][1,4]diazocine-10(7H)-carboxamide]
B (EC1.5 1-25 μM)	A (Fold activation ≥150%)	O=C(Nc1cnc(OC[C@@H](O)CO)nc1)N1c2nc(-c3cccc(C(F)(F)F)c3)ncc2N2CC[C@H]1C2 [Example 53, (8S)—N-(2-((S)-2,3-dihydroxypropoxy)pyrimidin-5-yl)-2-(3-(trifluoromethyl)phenyl)-7,8-dihydro-5,8-methanopyrimido[4,5-b][1,4]diazepine-9(6H)-carboxamide]
